Here are results for 17 molecules from patent US7253194B2, “Compounds and inhibitors of phospholipases” (The University of Queensland, priority 2000, dated 2007).

For this test, the target named is T1, human non-pancreatic sPLA2 (type IIa) (Homo sapiens, UniProt P14555).
T1 construct: Garvan Institute for Medical Research (provided, not a commercial vendor)
T1 sequence (P14555 21-144): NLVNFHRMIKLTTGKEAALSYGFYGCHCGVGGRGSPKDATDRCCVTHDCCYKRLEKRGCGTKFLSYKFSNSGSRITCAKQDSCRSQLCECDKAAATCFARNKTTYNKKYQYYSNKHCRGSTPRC
Nature of the test: Assay for inhibition of human non-pancreatic sPLA2 (type IIa), mixed micelle colorimetric assay. The conditions noted are these: recombinant hIIa-PLA2; substrate diheptanoyl thio-phosphatidyl choline, DTNB detection; IC50 from Dixon plot extrapolation; read-out: IC50, inhibition of human secretary PLA2. The class given is biochemical. The source says: Assay for Inhibition of Human Non-Pancreatic sPLA2 (type IIa)
A mixed nucelle colorimetric assay utilising a microtitreplate reader was used as described by Reynolds, L. J.; Hughes, L. L.; Dennis, E. A. “Analysis of human synovial fluid phospholipase A2 on short chain phosphatidylcholine-mixed micelles: Development of a spectrophotometric assay suitable for a microplate reader”. Anal Biochem. 1992, 204, 190-197.
Reagents were obtained commercially in the sPhospholipase A2 Assay Kit, Cayman Chemical Company MI USA. Buffer (25 mM Tris HCl at pH 7.5, 1 mg/mL BSA, 0.3 mM Triton X-100, 100 mM KCl, 10 mM CaCl2), substrate (diheptanoyl thio-phosphatidyl choline), DTNB (5,5′-dithiobis(2-nitrobenzoic acid)) and a 96 well plate were all provided. Recombinant hIIa-PLA2 was provided by the Garvan Institute for Medical Research. […] Standard inhibitor solutions were prepared from anhydrous DMSO. All samples were run in triplicate including the blank and control samples. Data was collected on a Molecular Devices Spectramax 250 Microplate Spectrophotometer using Softmax Pro Microplate Analysis Software v2.21. […] Thio-PC is processed by s-PLA2 and the free thiol produced is detected with DTNB (Ellman's Reagent). 5-Thio-2-nitrobenzoic acid is detected spectrophotometrically at […]. IC50's were determined by assaying inhibitors at a range of concentrations.
In the case of `O=C(O)CC[C@@H](CCc1ccc(Oc2ccccc2)cc1)NC(=O)CCCCCCc1ccccc1` [Compound 106, 6-(4Phenoxy-phenyl)-4R-(7-phenyl-heptanoylamino)-hexanoic acid], the IC50 was 99 nM.

On to `O=C(O)CCC(Cc1ccc(OCc2ccccc2)cc1)NC(=O)CCCCCCc1cccnc1` (racemic) [Compound 91, (RS)-5-(4-Benzyloxy-phenyl)-4-(7-pyridin-3-yl-heptanoylamino)-pentanoic acid], for which the IC50 is 1520 nM. Take `O=C(O)CCC(Cc1cn(CCCc2ccccc2)cn1)NC(=O)CCCCCCc1ccccc1` (centres unmarked) [Compound 32, 4-(7-Phenyl-heptanoylamino)-5-[1-(3-phenyl-propyl)-1H-imidazol-4-yl]-pentanoic acid]: the IC50 was 2500 nM. Take `O=C(O)CCC(Cc1ccc(OCc2ccccc2)cc1)NC(=O)CCCCCCCc1ccccc1` (racemic) [Compound 87, (RS)-5-(4-Benzyloxy-phenyl)-4-(8-phenyl-octanoylamino)-pentanoic acid]: the IC50 is 435 nM.

As to `O=C(CCCCCCc1ccccc1)NC(COP(=O)(O)CCCO)Cc1ccc(OCc2ccccc2)cc1` (centres unmarked) [Compound 62, (3-Hydroxy-propyl)-phosphonic acid mono-[3-(4-benzyloxy-phenyl)-2-(7-phenyl-heptanoylamino)-propyl]ester], the IC50 is 24 nM. For the molecule `O=C(O)CC[C@@H](Cc1cn(Cc2ccccc2)c2ccccc12)NC(=O)CCCCCCc1ccccc1` [Compound 19, (S)-5-(1-Benzyl-1H-indol-3-yl)-4-(7-phenyl-heptanoylamino)-pentanoic acid], the IC50 is 5700 nM. Turning to `CC(=O)Nc1cccc(CCCCCCC(=O)NC(CCC(=O)O)Cc2ccc(OCc3ccccc3)cc2)c1` (racemic) [Compound 89, (RS)-4-[7-(3-Acetylamino-phenyl)-heptanoylamino]-5-(4-benzyloxy-phenyl)-pentanoic acid], the IC50 is 8100 nM.

With `O=C(O)CC[C@@H](CCc1ccc(Oc2ccccc2)cc1)NC(=O)CCCCCCc1cccnc1` [Compound 107, 6-(4-Phenoxy-phenyl)-4R-(7-pyridin-3-yl-heptanoylamino)-hexanoic acid], the IC50 is 1700 nM.

As for `O=C(O)CCC(Cc1ccc(OCc2cccnc2)cc1)NC(=O)CCCCCCc1ccccc1` (racemic) [Compound 96, (RS)-4-(7-Phenyl-heptanoylamino)-5-[4-(pyridin-3-ylmethoxy)-phenyl]-pentanoic acid], the IC50 was 454 nM.

As to `O=C(O)CCC(Cc1ccc(OCc2ccccn2)cc1)NC(=O)CCCCCCc1ccccc1` (racemic) [Compound 95, (RS)-4-(7-Phenyl-heptanoylamino)-5-[4-(pyridin-2-ylmethoxy)-phenyl]-pentanoic acid], the IC50 is 428 nM. As for `O=C(O)CCC(Cc1ccc(OCc2ccccc2)cc1)NC(=O)CCCCCc1ccccc1` (racemic) [Compound 86, (RS)-5-(4-Benzyloxy-phenyl)-4-(6-phenyl-hexanoylamino)-pentanoic acid], the IC50 is 383 nM. As for `O=C(CCCCCCc1ccccc1)N[C@@H](CCc1nnn[nH]1)Cc1ccc(OCc2ccccc2)cc1` [Compound 66, (S)-7-Phenyl-heptanoic acid [1-(4-benzyloxy-benzyl)-3-(1H-tetrazol-5-yl)-propyl]-amide], the figure is 356 nM. For `COc1ccccc1CCCCCCC(=O)NC(CCC(=O)O)Cc1ccc(OCc2ccccc2)cc1` (racemic) [Compound 88, (RS)-5-(4-Benzyloxy-phenyl)-4-[7-(2-methoxy-phenyl)-heptanoylamino]-pentanoic acid], the IC50 is 7400 nM. Take `O=C(O)CCC(Cc1ccc(OCc2ccccc2)cc1)NC(=O)CCCCCCc1cccc([N+](=O)[O-])c1` (racemic) [Compound 90, (RS)-5-(4-Benzyloxy-phenyl)-4-[7-(3-nitro-phenyl)-heptanoylamino]-pentanoic acid]: the IC50 was 1070 nM. For `O=C(CCCCCCc1ccccc1)N[C@@H](COP(=O)(O)CCCOc1ccccc1)Cc1ccc(OCc2ccccc2)cc1` [Compound 57, (R)-(3-Phenoxy-propyl)-phosphonic acid mono-[3-(4-benzyloxy-phenyl)-2-(7-phenyl-heptanoylamino)-propyl]ester] the value was 656 nM; for `O=C(O)CC[C@@H](Cc1cn(CCCc2ccccc2)c2ccccc12)NC(=O)CCCCCCc1ccccc1` [Compound 20, (S)-4-(7-Phenyl-heptanoylamino)-5-[1-(3-phenyl-propyl)-1H-indol-3-yl]-pentanoic acid], 2900 nM.

On to `O=C(O)CCC(CCc1ccccc1)NC(=O)CCCCCCc1ccccc1` (racemic) [Compound 102, (RS)-6-Phenyl-4-(7-phenyl-heptanoylamino)-hexanoic acid], for which the IC50 was 1500 nM.

What is called IC50 is the midpoint of a concentration-inhibition curve.
